From PubChem BioAssay (NCI)
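How tested: cells in 96-well plates exposed to compound for 48 hours at five concentrations. At the TGI there is no net growth.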

Legend:
Experiment in all cases: inhibition of tumour cell growth, NCI panel, 48 h
[1] = tested on: SN12C renal
[2] = tested on: ACHN renal
[3] = tested on: RXF 393 renal
[4] = tested on: KM20L2 colon
[5] = tested on: SW-620 colon
[6] = tested on: EKVX NSCLC
[7] = tested on: U251 CNS
[8] = tested on: HCT-15 colon
[9] = tested on: DMS 273 small cell lung
[10] = tested on: SF-295 CNS
[11] = tested on: TK-10 renal
[12] = tested on: XF 498 CNS
[13] = tested on: COLO 205 colon
[14] = tested on: RPMI-8226 leukemia
[15] = tested on: SNB-19 CNS
[16] = tested on: OVCAR-5 ovarian
[17] = tested on: HOP-92 NSCLC
[18] = tested on: SNB-78 CNS
[19] = tested on: NCI-H226 lung
[20] = tested on: SK-OV-3 ovarian
[21] = tested on: K-562 leukemia
[22] = tested on: NCI-H522 lung
[23] = tested on: SK-MEL-28 melanoma
[24] = tested on: HOP-18 NSCLC
[25] = tested on: HCC-2998 colon
[26] = tested on: HOP-62 NSCLC
[27] = tested on: CAKI-1 renal
[28] = tested on: SK-MEL-5 melanoma
[29] = tested on: M19-MEL melanoma
[30] = tested on: MALME-3M melanoma
[31] = tested on: LXFL 529 NSCLC
[32] = tested on: SF-268 CNS
[33] = tested on: NCI-H23 lung
[34] = tested on: OVCAR-4 ovarian
[35] = tested on: A549 NSCLC
[36] = tested on: OVCAR-3 ovarian
[37] = tested on: SR leukemia
[38] = tested on: HCT-116 colon
[39] = tested on: DMS 114 small cell lung
[40] = tested on: OVCAR-8 ovarian
[41] = tested on: RXF-631 renal
[42] = tested on: MOLT-4 leukemia
[43] = tested on: DLD-1 colon
[44] = tested on: SK-MEL-2 melanoma
[45] = tested on: SF-539 CNS
[46] = tested on: UO-31 renal
[47] = tested on: KM12 colon
[48] = tested on: IGROV1 ovarian
[49] = tested on: UACC-62 melanoma
[50] = tested on: LOX IMVI melanoma

Measured: TGI

COc1cccc(NC(=O)CC(=O)NNCC(=O)Nc2nnc(-c3ccc(N(CCC#N)S(=O)(=O)c4ccccc4)cc3)s2)c1
> 100 µM: [1] | [2] | [3] | [4] | [5] | [6] | [7] | [8] | [9] | [10] | [11] | [12] | [13] | [14] | [15] | [16] | [17] | [18] | [19] | [20] | [21] | [22] | [23] | [24] | [25] | [26] | [27] | [28] | [29] | [30] | [31] | [32] | [33] | [34] | [35] | [36] | [37] | [38] | [39] | [40] | [41] | [42] | [43] | [44] | [45] | [46] | [47] | [48] | [49] | [50]
